Experimental data from patent publication US5102897A, “3,5-ditertiarybutyl-4-hydroxyphenyl, 1,3,4-thiadiazoles and oxadiazoles linked by carbon, oxygen, and sulfur residues” (Warner-Lambert Company, priority 1991, dated 1992).

Key:
[1] = biological target: T1, 5-Lipoxygenase (Rattus norvegicus, UniProt P12527); assay: ARBL whole cell 5-lipoxygenase assay (RBL-1 cells, LTB4 formation, RIA); type: cell-based; conditions: RBL-1 whole cells; for inhibition at 16 µM / inhibition at 10 µM: A23187, read-out: ARBL: Percent inhibition of LTB4 @ μM noted; for IC50: calcium ionophore A23187 (5 μM), read-out: ARBL: IC50 for LTB4 inhibition
T1 construct: host or cells: RBL-1 (rat basophilic leukemia)
T1 sequence (P12527 1-673): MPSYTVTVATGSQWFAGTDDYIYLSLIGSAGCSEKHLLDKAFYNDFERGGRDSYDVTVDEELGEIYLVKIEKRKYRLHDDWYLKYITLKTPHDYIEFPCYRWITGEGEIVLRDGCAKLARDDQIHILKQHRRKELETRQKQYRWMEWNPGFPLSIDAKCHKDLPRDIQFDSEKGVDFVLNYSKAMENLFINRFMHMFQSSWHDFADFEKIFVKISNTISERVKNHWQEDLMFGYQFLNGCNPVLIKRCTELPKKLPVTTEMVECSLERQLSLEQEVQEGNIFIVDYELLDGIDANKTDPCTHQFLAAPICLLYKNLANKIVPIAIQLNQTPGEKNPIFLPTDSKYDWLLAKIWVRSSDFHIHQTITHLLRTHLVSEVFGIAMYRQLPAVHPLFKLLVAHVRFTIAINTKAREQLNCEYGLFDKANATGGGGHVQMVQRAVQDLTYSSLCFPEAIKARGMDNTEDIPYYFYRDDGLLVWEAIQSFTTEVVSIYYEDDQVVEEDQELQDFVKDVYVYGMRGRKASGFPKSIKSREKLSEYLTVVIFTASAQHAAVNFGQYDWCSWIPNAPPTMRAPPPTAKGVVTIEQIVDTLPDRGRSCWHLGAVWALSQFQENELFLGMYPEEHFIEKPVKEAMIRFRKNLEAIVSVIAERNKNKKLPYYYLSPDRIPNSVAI
Method: (§1) ARBL/ARBC Whole Cell 5-Lipoxygenase and Cyclooxygenase Assays
(§2) The rat basophilic leukemia cell line (RBL-1) was obtained from the American Type Culture Collection (Rockville, MD).
(§3) Radioimmunoassay (RIA) kits of LTB4 and PGF2.sbsb.α were obtained from Amersham (Arlington Heights, Ill.) and Seragen (Boston, Mass.), respectively.
(§4) RBL-1 cells are grown in suspension culture in Eagle's minimum essential medium supplemented with 12% fetal bovine serum at 37° C. in an incubator supplied with air-5% carbon dioxide. Cells are harvested by centrifugation. They are washed with cold phosphate buffered saline pH 7.4 (PBS; NaCl, 7.1 g; Na2 HPO4, 1.15 g; KH2 PO4, 0.2 g; and KCl, 0.2 g/L). Cells are finally suspended in PBS containing 1.0 mM calcium at a density of 2×10^6 cells/mL. Cells are incubated with and without test agent (in DMSO) (1% DMSO is without effect on arachidonic acid metabolism) for ten minutes at room temperature. Calcium ionophore A23187 (5 μM) is added and cells are incubated for 7 minutes at 37° C. The reaction is stopped by chilling the tubes on ice for 10 minutes. Cells are separated by centrifugation and the supernatant is stored at -20° C. Aliquots (100 μL) are analyzed for LTB4 and PGF2.sbsb.α using radioimmunoassay kits as provided by the supplier.
(§5) Table 1 contains biochemical data obtained from this whole cell assay as IC50 s which are calculated as the amount of test compound causing 50% inhibition or percent of inhibition at the named micromoles (μM) of LTB4 or PGF2.sbsb.α formation.

[2] = biological target: T2, Cyclooxygenase (Rattus norvegicus, UniProt Q63921); assay: ARBC whole cell cyclooxygenase assay (RBL-1 cells, PGF2α formation, RIA); type: cell-based; conditions: RBL-1 whole cells; for IC50: calcium ionophore A23187 (5 μM), read-out: ARBC: IC50 for PGF2α inhibition; for inhibition at 10 µM: read-out: ARBC: Percent inhibition of PGF2α @ 10 μM
T2 construct: host or cells: RBL-1 (rat basophilic leukemia)
T2 sequence (Q63921 27-602): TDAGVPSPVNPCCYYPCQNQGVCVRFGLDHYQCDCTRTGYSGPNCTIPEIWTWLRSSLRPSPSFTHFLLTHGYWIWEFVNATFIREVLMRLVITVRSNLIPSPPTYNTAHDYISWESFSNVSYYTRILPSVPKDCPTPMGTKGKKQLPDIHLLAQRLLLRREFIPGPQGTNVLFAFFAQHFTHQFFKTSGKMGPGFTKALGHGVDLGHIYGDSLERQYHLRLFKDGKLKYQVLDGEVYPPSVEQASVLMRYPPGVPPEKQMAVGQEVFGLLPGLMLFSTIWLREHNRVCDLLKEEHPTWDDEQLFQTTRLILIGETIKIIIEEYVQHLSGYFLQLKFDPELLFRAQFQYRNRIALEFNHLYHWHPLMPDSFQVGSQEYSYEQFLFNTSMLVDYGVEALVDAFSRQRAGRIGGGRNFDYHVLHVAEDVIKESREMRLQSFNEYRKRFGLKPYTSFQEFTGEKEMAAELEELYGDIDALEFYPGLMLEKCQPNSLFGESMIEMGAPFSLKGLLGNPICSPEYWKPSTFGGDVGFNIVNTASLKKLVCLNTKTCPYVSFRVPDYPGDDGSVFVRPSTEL
Method: as §1, §2, §3, §4, §5

[3] = tested on: Carrageenan-Induced Rat Foot Paw Edema; assay: Carrageenan-Induced Rat Foot Paw Edema-2 (CFE-2) Assay; type: in vivo; conditions: dosed 1 hour before carrageenan, edema measured 5 hours after, probit analysis, read-out: CFE: ID40 for inhibition of swelling
Method: Carrageenan-Induced Rat Foot Paw Edema-2 (CFE-2) Assay: Protocol
Carrageenan solution (1% w/v) is prepared by dissolving 100 mg carrageenan (Marine Colloidal Div., Springfield, N.J.) in 10 mL of sterile saline (0.9) solution (Travenol). The solution is vortexed for 30 to 45 minutes. Animals are dosed with compound 1 hour before carrageenan challenge. Foot paw edema is induced by injecting 0.10 mL of the 1% carrageenan subcutaneously into the plantar portion of the right hind paw of each rat under light anesthesia. Initial foot paw volume is measured immediately following carrageenan challenge using mercury plethysmography (Buxco Electronics). Edema is measured 5 hours after carrageenan. The difference between the 5-hour and the initial paw volume is expressed as delta edema. The delta edema for each test group of animals is used to calculate the percent inhibition of edema achieved by the compound at the test dose compared with the vehicle control group. The data in Table 1 (the dose at which swelling is inhibited by the noted) is calculated by probit analysis for the dose at which percent inhibition occurs.

| SMILES | IC50 [1] [nM] | inhibition at 10 µM [1] [%] | inhibition at 10 µM ([2]; A23187) [%] | other results |
| --- | --- | --- | --- | --- |
| CC(C)(C)c1cc(Sc2n[nH]c(=O)o2)cc(C(C)(C)C)c1O [Example 6, 5-[[3,5-Bis(1,1-dimethylethyl)-4-hydroxyphenyl]thio]-1,3,4-oxadiazol-2(3H)-one] |  |  |  | inhibition at 16 µM [1]: 91%; ARBC: Percent inhibition of PGF2α ([2]; @ 16 (as printed in the cell), A23187): 46% |
| CC(C)(C)c1cc(Sc2n[nH]c(=S)o2)cc(C(C)(C)C)c1O [Example 7, 5-[[3,5-Bis(1,1-dimethylethyl)-4-hydroxyphenyl]thio]-1,3,4-oxadiazole-2(3H)-thione] | 2000 |  |  | IC50 [2]: 1500 nM; ED40 [3]: 8.6 mg/kg |
| CC(C)(C)c1cc(Sc2n[nH]c(=O)s2)cc(C(C)(C)C)c1O [Example 8, 5[[3,5-Bis(1,1-dimethylethyl)-4-hydroxyphenyl]thio]-1,3,4-thiadiazol-2(3H)-one] |  |  |  | inhibition at 16 µM [1]: 90% |
| CC(C)(C)c1cc(Sc2n[nH]c(=S)s2)cc(C(C)(C)C)c1O [Example 9, 5-[[3,5-Bis(1,1-dimethylethyl)-4-hydroxyphenyl]thio]-1,3,4-thiadiazole-2(3H)-thione] | 1100 |  |  | IC50 [2]: 3600 nM |
| CC(C)(C)c1cc(Sc2nncs2)cc(C(C)(C)C)c1O [Example 10, 2,6-Bis(1,1-dimethylethyl)-4-[(1,3,4-thiadiazol-2-yl)thio]-phenol] |  | 59 | 54 |  |
| CC(C)(C)c1cc(SCCc2n[nH]c(=O)o2)cc(C(C)(C)C)c1O [Example 13, 5-[2-[[3,5-Bis(1,1-dimethylethyl)-4-hydroxyphenyl]thio]ethyl]-1,3,4-oxadiazol-2(3H)-one] | 600 |  | 75 |  |
| CC(C)(C)c1cc(SCCc2n[nH]c(=S)o2)cc(C(C)(C)C)c1O [Example 14, 5-[2-[3,5-Bis(1,1-dimethylethyl)-4-hydroxyphenyl]thio]ethyl-1,3,4-oxadiazole-2(3H)-thione] | 4200 |  |  |  |
| CC(C)(C)c1cc(SCCc2nnco2)cc(C(C)(C)C)c1O [Example 15] |  | 100 | 55 |  |
| CC(C)(C)c1cc(SCCc2nnc(N)o2)cc(C(C)(C)C)c1O [Example 16] |  | 100 |  |  |
| CC(C)(C)c1cc(CCc2n[nH]c(=O)o2)cc(C(C)(C)C)c1O [Example 23, 5-[2-[3,5-bis(1,1-dimethylethyl)-4-hydroxyphenyl]ethyl]-1,3,4-oxadiazol-2(3H)-one] |  | 60 |  |  |
| CC(C)(C)c1cc(CCc2nnco2)cc(C(C)(C)C)c1O [Example 25, 2,6-Bis(1,1-dimethylethyl)-4-[2-(1,3,4-oxadiazol-2-yl)ethyl]phenol] |  | 100 | 52 |  |
| CC(C)(C)c1cc(CCc2nnc(N)o2)cc(C(C)(C)C)c1O [Example 26, 4-[2-(5-Amino-1,3,4-oxadiazol-2-yl)ethyl]-2,6-bis(1,1-dimethylethyl)phenol] |  | 40 |  |  |
| CC(C)(C)c1cc(C(=O)c2nnc(N)s2)cc(C(C)(C)C)c1O [Example 29, (5-Amino-1,3,4-thiadiazol-2-yl)[3,5-bis(1,1-dimethylethyl)-4-hydroxyphenyl]methanon] | 1100 |  |  | IC50 [2]: 5200 nM |
| CSc1nnc(C(=O)c2cc(C(C)(C)C)c(O)c(C(C)(C)C)c2)s1 [Example 30] |  | 100 | 100 |  |
| CC(C)(C)c1cc(C(=O)c2n[nH]c(=S)s2)cc(C(C)(C)C)c1O [Example 31, [3,5-Bis(1,1-dimethylethyl)-4-hydroxphenyl][5(4H)-thioxo-1,3,4-thiadiazol-2-yl]methanone] |  | 100 | 92 |  |
